In assay [1] the target is T1, Recombinant His-tagged NAMPT (Homo sapiens, UniProt P43490).
T1 construct: His; host or cells: E. coli
Put plainly: Biochemical inhibition assay: NAMPT enzymatic reaction, NMN quantified by mass spectrometry. The following applies: 33 nM NAMPT, 1 μM NAM, 100 μM PRPP, 30 minutes at room temperature, read-out: Biochem IC50. Summed up: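 Reaction 30 min at room temperature with 1 μM NAM, 100 μM PRPP, 2.5 mM ATP (final), quenched with formic acid. NMN quantified by RapidFire electrospray MS, normalized to L-cystathionine; IC50 from percent inhibition versus DMSO.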

The test system of a further assay is A2780 cells. Put plainly: In-vitro cell proliferation assay (SRB, 72 hours). The following applies: Homo sapiens, sulforhodamine B (SRB) assay. In kind it is cell-based. A digest of the protocol:
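Viable cells measured by TCA fixation and SRB staining, absorbance 570 nm; % inhibition vs DMSO control after media-only background subtraction, interpolated between two bracketing concentrations.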
Background: The SRB assay estimates cell density from bound dye.

Like-named read-outs stand apart in the source and are kept apart here.

IC50 data for 31 molecules are collected here from US9555039B2, “Piperidine derivatives and compositions for the inhibition of nicotinamide phosphoribosyltransferase (NAMPT)” (Forma TM, LLC., priority 2011, dated 2017).

T1 sequence (P43490 whole entry): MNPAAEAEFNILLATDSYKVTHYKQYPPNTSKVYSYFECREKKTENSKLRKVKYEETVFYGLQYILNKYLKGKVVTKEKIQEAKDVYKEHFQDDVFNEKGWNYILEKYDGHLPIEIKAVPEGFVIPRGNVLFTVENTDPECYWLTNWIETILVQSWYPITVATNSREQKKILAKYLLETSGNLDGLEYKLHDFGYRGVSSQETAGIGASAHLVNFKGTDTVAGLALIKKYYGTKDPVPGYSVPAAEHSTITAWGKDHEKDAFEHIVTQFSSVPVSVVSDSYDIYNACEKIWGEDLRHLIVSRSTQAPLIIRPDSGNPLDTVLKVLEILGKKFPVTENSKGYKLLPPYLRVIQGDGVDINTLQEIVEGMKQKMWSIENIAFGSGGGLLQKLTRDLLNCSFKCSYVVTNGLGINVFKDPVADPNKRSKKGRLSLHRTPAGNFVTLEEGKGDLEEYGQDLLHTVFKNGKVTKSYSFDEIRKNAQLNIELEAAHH

Consider `O=C(NCCCCC1CCN(C(=O)c2ccc(F)cn2)CC1)c1cc2cnccc2[nH]1` [N-(4-{1-[(5-fluoropyridin-2-yl)carbonyl]piperidin-4-yl}butyl)-1H-pyrrolo[3,2-c]pyridine-2-carboxamide], for which the half-inhibitory concentration (IC50) in assay [1] (2.5 mM ATP) stood at 57.2 nM; in the assay on A2780 cells it was 14 nM.

Regarding `CC(=O)N1CCC(C(=O)N2CCC(CCCCNC(=O)c3cc4cnccc4[nH]3)CC2)CC1` [N-(4-{1-[(1-acetylpiperidin-4-yl)carbonyl]piperidin-4-yl}butyl)-1H-pyrrolo[3,2-c]pyridine-2-carboxamide], the IC50 in assay [1] (2.5 mM ATP) is 134 nM; in the assay on A2780 cells it was 23.9 nM.

Turning to `Cn1cc(CC(=O)N2CCC(CCCCNC(=O)c3ccc4nccn4c3)CC2)c2ccccc21` [N-(4-{1-[2-(1-methyl-1H-indol-3-yl)acetyl]piperidin-4-yl}butyl)imidazo[1,2-a]pyridine-6-carboxamide], the values for the IC50 (in assay [1] (2.5 mM ATP); with A2780 cells) were 29.5 nM and 21.3 nM, respectively.

As for `Cc1cccc(C(=O)N2CCC(CCCCNC(=O)c3cc4cnccc4[nH]3)CC2)c1F` [N-(4-{1-[(2-fluoro-3-methylphenyl)carbonyl]piperidin-4-yl}butyl)-1H-pyrrolo[3,2-c]pyridine-2-carboxamide], the IC50 in assay [1] (2.5 mM ATP) stood at 47.5 nM; in the assay on A2780 cells, 6.9 nM.

Turning to `CCOc1ncccc1C(=O)N1CCC(CCCCNC(=O)c2ccc3nccn3c2)CC1` [N-(4-{1-[(2-ethoxypyridin-3-yl)carbonyl]piperidin-4-yl}butyl)imidazo[1,2-a]pyridine-6-carboxamide], the half-inhibitory concentration (IC50) in assay [1] (2.5 mM ATP) stood at 9.2 nM; with A2780 cells it was 0.5 nM.

Regarding `Cc1nc(C(=O)N2CCC(CCCCNC(=O)c3cc4cnccc4[nH]3)CC2)cs1` [N-(4-{1-[(2-methyl-1,3-thiazol-4-yl)carbonyl]piperidin-4-yl}butyl)-1H-pyrrolo[3,2-c]pyridine-2-carboxamide], the IC50 in assay [1] (2.5 mM ATP) worked out at 69.5 nM; in the assay with A2780 cells, 25 nM.

On to `O=C(NCCCCC1CCN(C(=O)c2ccc(C(F)(F)F)nc2)CC1)c1cc2ccncc2s1` [N-[4-(1-{[6-(trifluoromethyl)pyridin-3-yl]carbonyl}piperidin-4-yl)butyl]thieno[2,3-c]pyridine-2-carboxamide], for which the figures for the concentration for half-maximal inhibition (IC50) (in assay [1] (2.5 mM ATP); with A2780 cells) were 90.3 nM and 414 nM, respectively.

For `O=C(NCCCCC1CCN(C(=O)c2cccc(Cl)c2)CC1)c1cc2ccncc2s1` [N-(4-{1-[(3-chlorophenyl)carbonyl]piperidin-4-yl}butyl)thieno[2,3-c]pyridine-2-carboxamide], the IC50 in assay [1] (2.5 mM ATP) is 33.4 nM; in the assay with A2780 cells, 45.5 nM.

`O=C(NCCCCC1CCN(C(=O)c2ccccc2)CC1)c1cc2ccncc2s1` [N-[4-(1-benzoylpiperidin-4-yl)butyl]thieno[2,3-c]pyridine-2-carboxamide]: the IC50 is 6.3 nM in assay [1] ([…] ATP) and 1.2 nM in the assay with A2780 cells.

As to `O=C(NCCCCC1CCN(C(=O)c2ccc(Cl)cc2)CC1)c1ccc2nccn2c1` [N-(4-{1-[(4-chlorophenyl)carbonyl]piperidin-4-yl}butyl)imidazo[1,2-a]pyridine-6-carboxamide], the IC50 in assay [1] (2.5 mM ATP) was 84.6 nM; in the assay on A2780 cells it was 100 to 1000 nM.

Regarding `O=C(NCCCCC1CCN(S(=O)(=O)c2ccc(Cl)cc2)CC1)c1cc2cnccc2[nH]1` [N-(4-{1-[(4-chlorobenzene)sulfonyl]piperidin-4-yl}butyl)-1H-pyrrolo[3,2-c]pyridine-2-carboxamide], the IC50 in assay [1] (2.5 mM ATP) came to 49.9 nM; with A2780 cells, 27.5 nM.

Regarding `O=C(NCCCCC1CCN(C(=O)c2cc(Cl)ccc2Cl)CC1)c1cc2cnccc2[nH]1` [N-(4-{1-[(2,5-dichlorophenyl)carbonyl]piperidin-4-yl}butyl)-1H-pyrrolo[3,2-c]pyridine-2-carboxamide], the half-maximal inhibitory concentration (IC50) in assay [1] (2.5 mM ATP) is 51.3 nM; in the assay with A2780 cells it was 6.1 nM.

As for `O=C(NCCCCC1CCN(C(=O)c2ccc(OC(F)F)cc2)CC1)c1cc2cnccc2[nH]1` [N-[4-(1-{[4-(difluoromethoxy)phenyl]carbonyl}piperidin-4-yl)butyl]-1H-pyrrolo[3,2-c]pyridine-2-carboxamide], the IC50 in assay [1] (2.5 mM ATP) is 183 nM; in the assay with A2780 cells, 31.4 nM.

On to `O=C(NCCCCC1CCN(C(=O)c2csc(-c3cccnc3)n2)CC1)c1cc2cnccc2[nH]1` [N-[4-(1-{[2-(pyridin-3-yl)-1,3-thiazol-4-yl]carbonyl}piperidin-4-yl)butyl]-1H-pyrrolo[3,2-c]pyridine-2-carboxamide], for which the IC50 in assay [1] (2.5 mM ATP) was determined as 81.1 nM; with A2780 cells it was 14.9 nM.

`O=C(NCCCCC1CCN(C(=O)c2ccccc2)CC1)c1cc2cnccc2[nH]1` [N-[4-(1-benzoylpiperidin-4-yl)butyl]-1H-pyrrolo[3,2-c]pyridine-2-carboxamide]: the IC50 worked out at 8.1 nM in assay [1] (2.5 mM ATP) and 1.4 nM with A2780 cells.

For `CC(C)c1ccc(C(=O)N2CCC(CCCCNC(=O)c3cc4ccncc4s3)CC2)cn1` [N-[4-(1-{[6-(propan-2-yl)pyridin-3-yl]carbonyl}piperidin-4-yl)butyl]thieno[2,3-c]pyridine-2-carboxamide], the IC50 in assay [1] (2.5 mM ATP) is 138 nM; in the assay with A2780 cells, 100 to 1000 nM.

As to `CCOc1cccc(C(=O)N2CCC(CCCCNC(=O)c3cc4cnccc4[nH]3)CC2)c1` [N-(4-{1-[(3-ethoxyphenyl)carbonyl]piperidin-4-yl}butyl)-1H-pyrrolo[3,2-c]pyridine-2-carboxamide], the IC50 in assay [1] (2.5 mM ATP) is 85.1 nM; with A2780 cells, 11 nM.

For the molecule `Cc1ccc(C(=O)N2CCC(CCCCNC(=O)c3cc4ccncc4s3)CC2)cn1` [N-(4-{1-[(6-methylpyridin-3-yl)carbonyl]piperidin-4-yl}butyl)thieno[2,3-c]pyridine-2-carboxamide], the figures for the IC50 (in assay [1] (2.5 mM ATP); in the assay with A2780 cells) were 69.7 nM and 100 to 1000 nM, respectively.

In the case of `Cc1ncccc1C(=O)N1CCC(CCCCNC(=O)c2cc3cnccc3[nH]2)CC1` [N-(4-{1-[(2-methylpyridin-3-yl)carbonyl]piperidin-4-yl}butyl)-1H-pyrrolo[3,2-c]pyridine-2-carboxamide], the IC50 in assay [1] (2.5 mM ATP) is 21.5 nM; in the assay with A2780 cells it was 1.7 nM.

Turning to `Cn1cc(CC(=O)N2CCC(CCCCNC(=O)c3cc4cnccc4[nH]3)CC2)c2ccccc21` [N-(4-{1-[2-(1-methyl-1H-indol-3-yl)acetyl]piperidin-4-yl}butyl)-1H-pyrrolo[3,2-c]pyridine-2-carboxamide], the values for the half-maximal inhibitory concentration (IC50) (in assay [1] (2.5 mM ATP); in the assay with A2780 cells) were 9.1 nM and 11.2 nM, respectively.

For `CC(C)S(=O)(=O)N1CCC(CCCCNC(=O)c2cc3cnccc3[nH]2)CC1` [N-{4-[1-(propane-2-sulfonyl)piperidin-4-yl]butyl}-1H-pyrrolo[3,2-c]pyridine-2-carboxamide], the IC50 in assay [1] (2.5 mM ATP) worked out at 30.6 nM; in the assay with A2780 cells it was 23 nM.

Take `CSc1ncccc1C(=O)N1CCC(CCCCNC(=O)c2cc3cnccc3[nH]2)CC1` [N-[4-(1-{[2-(methylsulfanyl)pyridin-3-yl]carbonyl}piperidin-4-yl)butyl]-1H-pyrrolo[3,2-c]pyridine-2-carboxamide]: the IC50 in assay [1] (2.5 mM ATP) was determined as 8.3 nM; in the assay with A2780 cells, 0.7 nM.

As to `O=C(NCCCCC1CCN(C(=O)c2ccncc2)CC1)c1cc2cnccc2[nH]1` [N-(4-{1-[(pyridin-4-yl)carbonyl]piperidin-4-yl}butyl)-1H-pyrrolo[3,2-c]pyridine-2-carboxamide], the values for the IC50 (in assay [1] (2.5 mM ATP); in the assay on A2780 cells) were 9.7 nM and 4.4 nM, respectively.

Take `O=C(NCCCCC1CCN(C(=O)c2cccc(F)c2)CC1)c1cc2ccncc2s1` [N-(4-{1-[(3-fluorophenyl)carbonyl]piperidin-4-yl}butyl)thieno[2,3-c]pyridine-2-carboxamide]: the concentration for half-maximal inhibition (IC50) was determined as 7.7 nM in assay [1] (2.5 mM ATP) and 7.4 nM in the assay on A2780 cells.

With `COc1cc(OC)cc(C(=O)N2CCC(CCCCNC(=O)c3cc4ccncc4s3)CC2)c1` [N-(4-{1-[(3,5-dimethoxyphenyl)carbonyl]piperidin-4-yl}butyl)thieno[2,3-c]pyridine-2-carboxamide], the results for the IC50 (in assay [1] (2.5 mM ATP); in the assay with A2780 cells) were 57.1 nM and 20.2 nM, respectively.

Regarding `CCOc1ccccc1C(=O)N1CCC(CCCCNC(=O)c2ccc3nccn3c2)CC1` [N-(4-{1-[(2-ethoxyphenyl)carbonyl]piperidin-4-yl}butyl)imidazo[1,2-a]pyridine-6-carboxamide], the IC50 in assay [1] (2.5 mM ATP) was found to be 5.2 nM; in the assay on A2780 cells, 0.7 nM.

On to `COc1ccc(S(=O)(=O)N2CCC(CCCCNC(=O)c3cc4cnccc4[nH]3)CC2)c(OC)c1` [N-(4-{1-[(2,4-dimethoxybenzene)sulfonyl]piperidin-4-yl}butyl)-1H-pyrrolo[3,2-c]pyridine-2-carboxamide], for which the IC50 in assay [1] (2.5 mM ATP) came to 19.1 nM; with A2780 cells it was 1.7 nM.

In the case of `CC(C)Oc1ccc(C(=O)N2CCC(CCCCNC(=O)c3ccc4nccn4c3)CC2)cc1` [N-[4-(1-{[4-(propan-2-yloxy)phenyl]carbonyl}piperidin-4-yl)butyl]imidazo[1,2-a]pyridine-6-carboxamide], the values for the IC50 (in assay [1] (2.5 mM ATP); in the assay with A2780 cells) were 55.2 nM and 20.9 nM, respectively.

Turning to `O=C(NCCCCC1CCN(C(=O)c2ccc(F)cn2)CC1)c1cc2ccncc2s1` [N-(4-{1-[(5-fluoropyridin-2-yl)carbonyl]piperidin-4-yl}butyl)thieno[2,3-c]pyridine-2-carboxamide], the IC50 in assay [1] (2.5 mM ATP) was 26.5 nM; with A2780 cells, 100 to 1000 nM.

In the case of `O=C(NCCCCC1CCN(C(=O)c2cc(F)ccc2F)CC1)c1ccc2nccn2c1` [N-(4-{1-[(2,5-difluorophenyl)carbonyl]piperidin-4-yl}butyl)imidazo[1,2-a]pyridine-6-carboxamide], the concentration for half-maximal inhibition (IC50) (in assay [1] (2.5 mM ATP); in the assay with A2780 cells) was 5 nM in each case.

For the molecule `O=C(NCCCCC1CCN(C(=O)c2ccc3nccn3c2)CC1)c1cc2cnccc2[nH]1` [N-{4-[1-({imidazo[1,2-a]pyridin-6-yl}carbonyl)piperidin-4-yl]butyl}-1H-pyrrolo[3,2-c]pyridine-2-carboxamide], the IC50 was 7.7 nM in assay [1] (2.5 mM ATP) and 13.8 nM in the assay with A2780 cells.

Usually IC50 stands for the concentration that gives 50% inhibition.
